Values after ≈ are worked out from the molar mass of the structure shown. Read-outs that look alike come from different tables or passages of the source.
Tests used:
Type in all cases: cell-based
[1] = system: Staphylococcus aureus 209P; test: MIC by serial two-fold agar dilution, S. aureus 209P; conditions: Staphylococcus aureus, 209P
Protocol: (§1) The minimum inhibitory concentrations (MIC) of Bu-2659A, B, C, D and E were determined for a variety of gram-positive and gram-negative bacteria by the serial two-fold agar dilution method using the Steer's multi-inoculating apparatus. The inoculum was standardized as a 10^4 dilution of an overnight culture of the test organisms in Heart Infusion Broth (Difco). […] Reference antibiotics utilized in these tests included commercially available neomycin as well as its components, neomycins B and C [as used herein, the term "neomycin" means the commercial product containing neomycins B and C at an approximate ratio of 7:3], paromomycin [the commercial product containing >90% of paromomycin I and <10% of paromomycin II] and ribostamycin.

[2] = system: Staphylococcus aureus Smith; test: MIC by serial two-fold agar dilution, S. aureus Smith; conditions: Staphylococcus aureus
Protocol: as §1

[3] = system: Staphylococcus aureus D136; test: MIC by serial two-fold agar dilution, S. aureus D136; conditions: Staphylococcus aureus, D136
Protocol: as §1

[4] = system: Micrococcus luteus PCI 1001; test: MIC by serial two-fold agar dilution, M. luteus PCI 1001; conditions: Micrococcus luteus, PCI1001
Protocol: as §1

Micrococcus flavus D12 = test: MIC by serial two-fold agar dilution, M. flavus D12; conditions: Micrococcus flavus, D12
Protocol: as §1

[5] = system: Bacillus subtilis PCI 219; test: MIC by serial two-fold agar dilution, B. subtilis PCI 219; conditions: Bacillus subtilis, PCI219
Protocol: as §1

Escherichia coli NIHJ = test: MIC by serial two-fold agar dilution, E. coli NIHJ; conditions: Escherichia coli
Protocol: as §1

Escherichia coli Juhl = test: MIC by serial two-fold agar dilution, E. coli Juhl; conditions: Escherichia coli
Protocol: as §1

[6] = system: Klebsiella pneumoniae D11; test: MIC by serial two-fold agar dilution, K. pneumoniae D11; conditions: Klebsiella pneumoniae, D11
Protocol: as §1

Proteus vulgaris A9436 = test: MIC by serial two-fold agar dilution, P. vulgaris A9436; conditions: Proteus vulgaris, A9436
Protocol: as §1

Proteus mirabilis A9554 = test: MIC by serial two-fold agar dilution, P. mirabilis A9554; conditions: Proteus mirabilis, A9554
Protocol: as §1

Proteus mirabilis A9906 = test: MIC by serial two-fold agar dilution, P. mirabilis A9906; conditions: Proteus mirabilis, A9906
Protocol: as §1

Proteus morganii A9553 = test: MIC by serial two-fold agar dilution, P. morganii A9553; conditions: Morganella morganii, A9553
Protocol: as §1

Proteus rettgeri A15167 = test: MIC by serial two-fold agar dilution, P. rettgeri A15167; conditions: Providencia rettgeri, A15167
Protocol: as §1

[7] = system: Pseudomonas aeruginosa D15; test: MIC by serial two-fold agar dilution, P. aeruginosa D15; conditions: Pseudomonas aeruginosa, D15
Protocol: as §1

[8] = system: Pseudomonas aeruginosa A9930; test: MIC by serial two-fold agar dilution, P. aeruginosa A9930; conditions: Pseudomonas aeruginosa, A9930
Protocol: as §1

[9] = system: Serratia marcescens A20019; test: MIC by serial two-fold agar dilution, S. marcescens A20019; conditions: Serratia marcescens, A20019
Protocol: as §1

Escherichia coli JR88 = test: MIC, aminoglycoside-resistant E. coli JR88; conditions: Escherichia coli, JR88
Protocol: as §1

[10] = system: gram-positive and gram-negative bacteria; test: In vitro antibacterial spectra (MIC), overall comparison, Table 7; conditions: Table 7 organisms
Protocol: as §1

[11] = Table 7, Mueller-Hinton agar, read-out: MIC

| SMILES | MIC [1] | MIC [2] | MIC [3] | MIC [4] | MIC (Micrococcus flavus D12) | MIC [5] | MIC (Escherichia coli NIHJ) | MIC (Escherichia coli Juhl) | MIC [6] | MIC (Proteus vulgaris A9436) | MIC (Proteus mirabilis A9554) | MIC (Proteus mirabilis A9906) | MIC (Proteus morganii A9553) | MIC (Proteus rettgeri A15167) | MIC [7] | MIC [8] | MIC [9] | other results |
| --- | --- | --- | --- | --- | --- | --- | --- | --- | --- | --- | --- | --- | --- | --- | --- | --- | --- | --- |
| NC[C@H]1O[C@H](O[C@H]2[C@H](O[C@@H]3O[C@H](CO)[C@@H](O[C@H]4O[C@H](CN)[C@@H](O)[C@H](O)[C@H]4N)[C@H]3O)[C@@H](O)[C@H](N)C[C@@H]2N)[C@H](N)[C@@H](O)[C@@H]1O [Neomycin C, neomycin C] | 0.8 µg/mL (≈ 1.3 µM) | 1.6 µg/mL (≈ 2.6 µM) | 1.6 µg/mL (≈ 2.6 µM) | 50 µg/mL (≈ 81.3 µM) | 100 µg/mL (≈ 163 µM) | < 0.05 µg/mL | 3.1 µg/mL (≈ 5.04 µM) | 12.5 µg/mL (≈ 20.3 µM) | 0.4 µg/mL (≈ 0.651 µM) | 1.6 µg/mL (≈ 2.6 µM) | 3.1 µg/mL (≈ 5.04 µM) | 1.6 µg/mL (≈ 2.6 µM) | 3.1 µg/mL (≈ 5.04 µM) | 1.6 µg/mL (≈ 2.6 µM) | > 100 µg/mL | 50 µg/mL (≈ 81.3 µM) | 6.3 µg/mL (≈ 10.2 µM) | – |
| NC[C@@H]1O[C@H](O[C@H]2[C@@H](O)[C@H](O[C@@H]3[C@@H](O)[C@H](N)C[C@H](N)[C@H]3O[C@H]3O[C@H](CN)[C@@H](O)[C@H](O)[C@H]3N)O[C@@H]2CO)[C@H](N)[C@@H](O)[C@@H]1O [Neomycin B, neomycin B] | 0.4 µg/mL (≈ 0.651 µM) | 0.4 µg/mL (≈ 0.651 µM) | 0.4 µg/mL (≈ 0.651 µM) | 0.8 µg/mL (≈ 1.3 µM) | 1.6 µg/mL (≈ 2.6 µM) | < 0.05 µg/mL | 1.6 µg/mL (≈ 2.6 µM) | 3.1 µg/mL (≈ 5.04 µM) | 0.2 µg/mL (≈ 0.325 µM) | 0.8 µg/mL (≈ 1.3 µM) | 0.8 µg/mL (≈ 1.3 µM) | 0.8 µg/mL (≈ 1.3 µM) | 3.1 µg/mL (≈ 5.04 µM) | 1.6 µg/mL (≈ 2.6 µM) | 3.1 µg/mL (≈ 5.04 µM) | 3.1 µg/mL (≈ 5.04 µM) | 1.6 µg/mL (≈ 2.6 µM) | – |
| NC[C@H]1O[C@H](O[C@H]2[C@H](O)[C@@H](O)[C@H](N)C[C@@H]2N)[C@H](N)[C@@H](O)[C@@H]1O [Neamine, neamine] | 6.3 µg/mL (≈ 19.5 µM) | 3.1 µg/mL (≈ 9.62 µM) | – | – | – | 3.1 µg/mL (≈ 9.62 µM) | 12.5 µg/mL (≈ 38.8 µM) | – | 12.5 µg/mL (≈ 38.8 µM) | 6.3 µg/mL (≈ 19.5 µM) | 25 µg/mL (≈ 77.6 µM) | – | – | – | – | 400 µg/mL (≈ 1240 µM) | – | MIC (Escherichia coli JR88): 12.5 µg/mL (≈ 38.8 µM) |
| NC[C@H]1O[C@H](O[C@H]2[C@H](O[C@@H]3O[C@H](CO)[C@@H](O)[C@H]3O)[C@@H](O)[C@H](O)C[C@@H]2N)[C@H](N)[C@@H](O)[C@@H]1O [Bu-2659E, 1-deamino-1-hydroxyribostamycin] | – | – | – | – | – | – | – | – | – | – | – | – | – | – | – | – | – | MIC [1, 11]: 25 µg/mL (≈ 54.9 µM); MIC [2, 11]: 50 µg/mL (≈ 110 µM); MIC [3, 11]: 50 µg/mL (≈ 110 µM); MIC [4, 11]: > 100 µg/mL; MIC (Micrococcus flavus D12; [11]): > 100 µg/mL; MIC [5, 11]: 3.1 µg/mL (≈ 6.81 µM); MIC (Escherichia coli NIHJ; [11]): 50 µg/mL (≈ 110 µM); MIC (Escherichia coli Juhl; [11]): > 100 µg/mL; MIC [6, 11]: 12.5 µg/mL (≈ 27.4 µM); MIC (Proteus vulgaris A9436; [11]): 12.5 µg/mL (≈ 27.4 µM); MIC (Proteus mirabilis A9554; [11]): 12.5 µg/mL (≈ 27.4 µM); MIC (Proteus mirabilis A9906; [11]): 25 µg/mL (≈ 54.9 µM); MIC (Proteus morganii A9553; [11]): 25 µg/mL (≈ 54.9 µM); MIC (Proteus rettgeri A15167; [11]): 12.5 µg/mL (≈ 27.4 µM); MIC [7, 11]: > 100 µg/mL; MIC [8, 11]: > 100 µg/mL; MIC [9, 11]: > 100 µg/mL; in vitro antibacterial activity, in words [10]: less active than components B and C |
